Source: EP2054020B1, “COSMETIC COMPOSITION COMPRISING PURINE AND/OR A PURINE DERIVATIVE AND TAURINE” (Henkel AG & Co. KGaA, priority 2006, dated 2008)

How the values were obtained:
IGFBP3 = assay: Differential gene expression by qRT-PCR in dermal papilla cells: IGFBP3; format: cell-based; conditions: 24 h, Taurin 0,5 %, Coffein 0,025 %; for IGFBP3 Mittelwert: untreated Kontrolle = 1, spread in brackets, 4 biological replicates, >=2 or <=0,5 signifikant, >=1,5 or <=0,6 tendenziell; for Expression von IGF-BP3: result in words
Source text: (§1) Tabelle 2: Untersuchte Lösungen
Diesen Eigenschaften gegenüber steht die Expression von IGFBP-3. Dieses Genprodukt führt neben Anderen zu einer.Verschiebung des Zyklus von der Wachstums- zur Regressionsphase. Nach Applikation von Substanzen, die Effekte am biologisch aktiven Teil des Haares hervorrufen, könnte die Bestimmung der Veränderungen der Expression dieses Gens Aussagen über Haarwuchsstimulantien oder -inhibitoren liefern.
(§2) Die differentielle Genexpression wurde mittels quantitatitiver Reverse-Transkription Polymerase Kettenreaktion (qRT-PCR) bestimmt. Nach Anzucht der dermalen Papillenzellen wurden jeweils 4 biologische Replikate für 24 h mit den Lösungen gemäß Tabelle 2 inkubiert. Zur Durchführung der qRT-PCR wird zunächst mit Hilfe des RNeasy Mini Kits der Fa. Qiagen die RNA aus den dermalen Papillenzellen isoliert und mittels reverser Transkription in cDNA umgeschrieben. Bei der anschließenden PCR Reaktion, die mit Hilfe genspezifischer Primer für die jeweiligen haarrelevanten Gene durchgeführt wird und die der Amplifikation der gesuchten Genabschnitte dient, wird die Bildung der PCR-Produkte online über ein Fluoreszenzsignal detektiert. Das Fluoreszenzsignal ist dabei proportional zur Menge des gebildeten PCR-Produktes. Je stärker die Expression eines bestimmten Gens ist, desto größer ist die Menge an gebildetem PCR-Produkt und umso höher ist das Fluoreszenzsignal.
(§3) Zur Quantifizierung der Genexpression wird die unbehandelte Kontrolle gleich 1 gesetzt und die Expression der zu bestimmenden Gene darauf bezogen (x-fache Expression). Dabei werden Werte, die größer/gleich der 2-fachen Expression oder kleiner/gleich der 0,5-fachen Expression der unbehandelten Kontrolle sind als signifikant differentiell exprimiert eingestuft. Werte die größer/gleich der 1,5-fachen Expression oder kleiner/gleich der 0,6-fachen Expression der unbehandelten Kontrolle sind, werden als tendenziell differentiell exprimiert eingestuft. Die Ergebnisse sind in Tabelle 4 zusammengefasst.

HGF [1] = assay: Growth factor release (ELISA) from reconstructed dermal papillae: HGF; format: cell-based; conditions: 24 h, Taurin 0,5 %, Coffein 0,025 %; for HGF-Freisetzung Mittelwert: quadruplicates, compared with untreated Kontrolle = 100, spread in brackets; for Steigerung der HGF-Ausschüttung: increase over untreated control
Source text: (§4) Die beiden Wachstumsfaktoren Hepatocyte Growth Factor (HGF) und Keratinocyte Growth Factor (KGF) sind wichtige Regulatoren des Haarzyklus. Bei potentiell wachstumsfördemden und den vorzeitigen Haarverlust vermindernden Substanzen kann von einer Steigerung eines der ausgeschütteten Faktoren ausgegangen werden. Die Ausschüttung von HGF sowie KGF kann mit Hilfe von kommerziell erhältlichen ELISA-Kits quantifiziert werden.
(§5) Die Ergebnisse finden sich in Tabelle 5 wieder. Tabelle 5: KGF- und HGF-Freisetzung in [%] nach Behandlung rekonstruierter dermaler Papillen im Vergleich zu unbehandelten Kontrollen.

KGF [2] = assay: Differential gene expression by qRT-PCR in dermal papilla cells: KGF; format: cell-based; conditions: 24 h, Taurin 0,5 %, Coffein 0,025 %; for KGF Mittelwert: untreated Kontrolle = 1, spread in brackets, 4 biological replicates, >=2 or <=0,5 signifikant, >=1,5 or <=0,6 tendenziell; for Expression von KGF: result in words
Source text: as §1
(§6) Hepatocyte Growth Factor (HGF) und Keratinocyte Growth Factor (KGF) sind wichtige Wachstumsfaktoren, die von den dermalen Papillenzellen synthetisiert werden. Im Speziellen stimuliert HGF das Follikelwachstum und KGF die Keratinozytenproliferation. Entsprechend werden HGF und KGF in der Wachstumsphase vermehrt exprimiert.
as §2, §3

KGF [3] = assay: Growth factor release (ELISA) from reconstructed dermal papillae: KGF; format: cell-based; conditions: 24 h, Taurin 0,5 %, Coffein 0,025 %; for KGF-Freisetzung Mittelwert: quadruplicates, compared with untreated Kontrolle = 100, spread in brackets; for Steigerung der KGF Ausschüttung: increase over untreated control
Source text: as §4, §5

HGF [4] = assay: Differential gene expression by qRT-PCR in dermal papilla cells: HGF; format: cell-based; conditions: 24 h, Taurin 0,5 %, Coffein 0,025 %; for HGF Mittelwert: untreated Kontrolle = 1, spread in brackets, 4 biological replicates, >=2 or <=0,5 signifikant, >=1,5 or <=0,6 tendenziell; for Expression von HGF: result in words
Source text: as §1, §6, §2, §3

[5] = tested on: kultivierte dermale Papillenzellen
Source text: Die Bestimmung der Freisetzung von Laktat-Dehydrogenase (LDH) kultivierter Zellen gibt Auskunft über die Schädigung der Zellmembran. In unbeschädigten Zellen ist LDH ausschließlich im Zytoplasma lokalisiert. Erst durch Schädigung der Zellmembran kann LDH in das umgebende Kulturmedium diffundieren. Mit Hilfe eines Substrat-gekoppelten kolorimetrischen Testsystems kann die Menge an freigesetztem LDH bestimmt werden.
Zur Bestimmung möglicher zellschädigender Nebeneffekte wurden kultivierte dermale Papillenzellen mit den in Tabelle 2 aufgeführten Lösungen kultiviert und nach Behandlung die Menge an LDH im Medium analysiert. Es wurde die Zeit bestimmt, die benötigt wird, um eine definierte Menge an Farbstoff umzusetzen. […] Hierbei gilt, dass Werte < 80 % auf mögliche zellschädigende Reaktionen hindeuten.

Compound	IGFBP3 Mittelwert (IGFBP3)	Expression von IGF-BP3 (IGFBP3)	HGF-Freisetzung Mittelwert (HGF [1])	Steigerung der HGF-Ausschüttung (HGF [1])	KGF Mittelwert (KGF [2])	Expression von KGF (KGF [2])	KGF-Freisetzung Mittelwert (KGF [3])	Steigerung der KGF Ausschüttung (KGF [3])	HGF Mittelwert (HGF [4])	Expression von HGF (HGF [4])	Freisetzung von LDH Mittelwert (%) [5]	zellschädigende Effekte [5]
NCCS(=O)(=O)O [Taurin, 2-Aminoethansulfonsäure]	1,41 (0,18) x-fache Expression	keinen signifikanten Änderungen	152 (29,9) %	52%	1,08 (0,12) x-fache Expression	keinen signifikanten Änderungen	110(11,5) %	19%	1,03 (0,30) x-fache Expression	keinen signifikanten Änderungen	134,1%	weder nach Behandlung mit Taurin oder Coffein allein, noch mit einem Gemisch beider Verbindungen zellschädigende Effekte nachgewiesen werden können
Cn1c(=O)c2c(ncn2C)n(C)c1=O [Coffein, reference compound]	0,44 (0,07) x-fache Expression	signifikante Deaktivierung	170 (35,8) %	70%	1,44 (0,13) x-fache Expression	tendenzielle Aktivierung	119 (9,7) %	10%	1,62 (0,46) x-fache Expression	tendenzielle Aktivierung		
